Data taken from US9695154B2, “Heteroaryl inhibitors of sumo activating enzyme” (MILLENNIUM PHARMACEUTICALS, INC., priority 2013, dated 2017).

Biological target: T1, recombinant human SAE enzyme (Homo sapiens, UniProt Q9UBT2)
T1 sequence (Q9UBT2 1-640): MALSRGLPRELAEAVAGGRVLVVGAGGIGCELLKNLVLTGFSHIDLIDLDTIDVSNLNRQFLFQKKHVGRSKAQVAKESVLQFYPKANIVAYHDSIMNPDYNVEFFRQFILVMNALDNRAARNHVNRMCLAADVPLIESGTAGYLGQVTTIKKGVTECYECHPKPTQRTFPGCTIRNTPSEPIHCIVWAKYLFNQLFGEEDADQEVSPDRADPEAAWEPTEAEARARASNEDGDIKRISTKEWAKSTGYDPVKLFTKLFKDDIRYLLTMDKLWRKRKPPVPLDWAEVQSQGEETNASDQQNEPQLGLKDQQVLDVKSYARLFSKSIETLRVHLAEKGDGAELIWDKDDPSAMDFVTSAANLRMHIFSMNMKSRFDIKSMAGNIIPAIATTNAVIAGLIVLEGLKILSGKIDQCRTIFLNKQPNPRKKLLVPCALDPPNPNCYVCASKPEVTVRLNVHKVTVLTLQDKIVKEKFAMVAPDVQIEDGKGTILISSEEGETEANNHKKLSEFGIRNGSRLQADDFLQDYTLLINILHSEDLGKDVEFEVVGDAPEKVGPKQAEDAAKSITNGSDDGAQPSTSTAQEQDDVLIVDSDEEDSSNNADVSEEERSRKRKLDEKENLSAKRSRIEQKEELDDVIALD
T1 sequence (Q9UBE0 1-346 partner): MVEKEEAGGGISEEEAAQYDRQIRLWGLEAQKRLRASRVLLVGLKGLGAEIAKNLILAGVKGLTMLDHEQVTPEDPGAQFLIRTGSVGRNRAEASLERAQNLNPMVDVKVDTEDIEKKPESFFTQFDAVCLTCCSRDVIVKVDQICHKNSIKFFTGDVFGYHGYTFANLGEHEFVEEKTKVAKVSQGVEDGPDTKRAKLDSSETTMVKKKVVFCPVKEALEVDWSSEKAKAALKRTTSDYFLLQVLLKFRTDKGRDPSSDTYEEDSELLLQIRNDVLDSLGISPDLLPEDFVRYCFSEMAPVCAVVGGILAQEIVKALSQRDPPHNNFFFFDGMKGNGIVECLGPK
Assay: SAE HTRF Enzyme Assay
Assay type: biochemical
Settings: for IC50: class symbols A-C; for inhibition at 0.111 µM / Percent Inhibition: compound concentration 0.111 μM; for inhibition at 0.111 µM: read-out: Percent Inhibition; for Percent Inhibition: 0.111 µM
Procedure: The SAE enzymatic reaction totals 50 μl and contains 50 mM HEPES Hemisodium (pH 7.5), 0.05% BSA, 5 mM MgCl2, 0.5 μM ATP, 250 μM GSH, 0.01 μM Ubc9-GST, 0.125 μM Sumo-Flag and 0.11 nM recombinant human SAE enzyme. The enzymatic reaction mixture with and without inhibitor, Is incubated at 24° C. for 105 min in a 384-well plate before termination with […] of Stop/Detection buffer (0.1M HEPES Hemisodium pH 7.5, 0.05% Tween20, 20 mM EDTA, 410 mM KF, 0.53 nM Europium-Cryptate labeled monoclonal anti-Flag M2 Antibody (CisBio International) and 8.125 μg/ml PHYCOLINK goat anti-GST allophycocyanin (XL-APC) antibody (Prozyme)). After incubation for 2 hours at 24° C., quantification of FRET is performed on the Pherostar™ (BMG Labtech). Percentage inhibition values at a single concentration or enzyme inhibition (IC50) values are determined from those curves. One skilled in the art will appreciate that the values generated either as percentage inhibition at a single concentration or IC50 values are subject to experimental variation.

SMILES | IC50 [nM] | inhibition at 0.111 µM [%] | Percent Inhibition [%]
C=C[S+]([O-])c1cccc(Cn2ccc(C(=O)c3cncnc3N[C@@H]3C[C@H](COS(N)(=O)=O)[C@@H](O)[C@H]3O)n2)c1 (mixture of isomers) [Compound I-74, [(1R,2R,3S,4R)-2,3-dihydroxy-4-{[5-({1-[3-((R)-vinylsulfinyl)benzyl]-1H-pyrazol-3-yl}carbonyl)pyrimidin-4-yl]amino}cyclopentyl]methyl sulfamate and [(1R,2R,3S,4R)-2,3-dihydroxy-4-{[5-({1-[3-((S)-vinylsulfinyl)benzyl]-1H-pyrazol-3-yl}carbonyl)pyrimidin-4-yl]amino}cyclopentyl]methyl sulfamate] | < 10 | 92 | –
CC1(C)CCC(Cn2ccc(C(=O)c3cncnc3N[C@@H]3C[C@H](COS(N)(=O)=O)[C@@H](O)C3)n2)O1 (mixture of isomers) [Compound I-77, [(1R,2S,4R)-4-({5-[(1-{[(2R)-5,5-dimethyltetrahydrofuran-2-yl]methyl}-1H-pyrazol-3-yl)carbonyl]pyrimidin-4-yl}amino)-2-hydroxycyclopentyl]methyl sulfamate and [(1R,2S,4R)-4-({5-[(1-{[(2S)-5,5-dimethyltetrahydrofuran-2-yl]methyl}-1H-pyrazol-3-yl)carbonyl]pyrimidin-4-yl}amino)-2-hydroxycyclopentyl]methyl sulfamate] | 100 to 1000 | 51 | –
CC1(C)CCC(Cn2ccc(C(=O)c3cncnc3N[C@@H]3C[C@H](COS(N)(=O)=O)[C@@H](O)[C@@H]3F)c2)O1 (mixture of isomers) [Compound I-250, [(1R,2R,3R,4R)-4-({5-[(1-{[(2R)-5,5-dimethyltetrahydrofuran-2-yl]methyl}-1H-pyrrol-3-yl)carbonyl]pyrimidin-4-yl}amino)-3-fluoro-2-hydroxycyclopentyl]methyl sulfamate and [(1R,2R,3R,4R)-4-({5-[(1-{[(2S)-5,5-dimethyltetrahydrofuran-2-yl]methyl}-1H-pyrrol-3-yl)carbonyl]pyrimidin-4-yl}amino)-3-fluoro-2-hydroxycyclopentyl]methyl sulfamate] | 10 to 100 | 86 | –
NS(=O)(=O)OC[C@H]1C[C@@H](Nc2ncncc2C(=O)c2ccn(CC3CCCO3)n2)C[C@@H]1O (mixture of isomers) [Compound I-293, [(1R,2S,4R)-2-hydroxy-4-{[5-({1-[(2R)-tetrahydrofuran-2-ylmethyl]-1H-pyrazol-3-yl}carbonyl)pyrimidin-4-yl]amino}cyclopentyl]methyl sulfamate and [(1R,2S,4R)-2-hydroxy-4-{[5-({1-[(2S)-tetrahydrofuran-2-ylmethyl]-1H-pyrazol-3-yl}carbonyl)pyrimidin-4-yl]amino}cyclopentyl]methyl sulfamate] | 100 to 1000 | 38 | –
NS(=O)(=O)OC[C@H]1C[C@@H](Nc2ncncc2C(=O)c2ccn(C3C=CCCC3)n2)C[C@@H]1O (mixture of isomers) [Compound I-302, [(1R,2S,4R)-4-{[5-({1-[(1R)-cyclohex-2-en-1-yl]-1H-pyrazol-3-yl}carbonyl)pyrimidin-4-yl]amino}-2-hydroxycyclopentyl]methyl sulfamate and [(1R,2S,4R)-4-{[5-({1-[(1S)-cyclohex-2-en-1-yl]-1H-pyrazol-3-yl}carbonyl)pyrimidin-4-yl]amino}-2-hydroxycyclopentyl]methyl sulfamate] | 100 to 1000 | 34 | –
NS(=O)(=O)OC[C@H]1C[C@@H](Nc2ncncc2C(=O)c2ccn(CC3CCOC3)n2)C[C@@H]1O (mixture of isomers) [Compound I-332, [(1R,2S,4R)-2-hydroxy-4-{[5-({1-[(3R)-tetrahydrofuran-3-ylmethyl]-1H-pyrazol-3-yl}carbonyl)pyrimidin-4-yl]amino}cyclopentyl]methyl sulfamate and [(1R,2S,4R)-2-hydroxy-4-{[5-({1-[(3S)-tetrahydrofuran-3-ylmethyl]-1H-pyrazol-3-yl}carbonyl)pyrimidin-4-yl]amino}cyclopentyl]methyl sulfamate] | 100 to 1000 | 16 | –
NS(=O)(=O)OC[C@H]1C[C@@H](Nc2ncncc2C(=O)c2ccn(CC3CC3c3ccccc3)c2)C[C@@H]1O (mixture of isomers) [Compound I-339, [(1R,2S,4R)-2-hydroxy-4-{[5-({1-[(1S,2S)-(2-phenylcyclopropyl)methyl]-1H-pyrrol-3-yl}carbonyl)pyrimidin-4-yl]amino}cyclopentyl]methyl sulfamate and [(1R,2S,4R)-2-hydroxy-4-{[5-({1-[(1R,2R)-(2-phenylcyclopropyl)methyl]-1H-pyrrol-3-yl}carbonyl)pyrimidin-4-yl]amino}cyclopentyl]methyl sulfamate] | < 10 | 93 | –
COC(C)c1cc(C(=O)c2cncnc2N[C@@H]2C[C@H](COS(N)(=O)=O)[C@@H](O)C2)nn1Cc1cccc(Br)c1 (mixture of isomers) [Compound I-369, [(1R,2S,4R)-4-{[5-({1-(3-bromobenzyl)-5-[(1S)-1-methoxyethyl]-1H-pyrazol-3-yl}carbonyl)pyrimidin 4-yl]amino)-2-hydroxycyclopentyl]methyl sulfamate and [(1R,2S,4R)-4-{[5-({1-(3-bromobenzyl)-5-[(1R)-1-methoxyethyl]-1H-pyrazol-3-yl}carbonyl)pyrimidin-4-yl]amino}-2-hydroxycyclopentyl]methyl sulfamate] | < 10 | 98 | –
NS(=O)(=O)OC[C@H]1C[C@@H](Nc2ncncc2C(=O)c2ccn(CC3CC3c3ccccc3)c2)[C@@H](F)[C@@H]1O (single isomer, unassigned) [Compound I-9, [(1R,2R,3R,4R)-3-fluoro-2-hydroxy-4-{[5-({1-[(1R,2R)-(2-phenylcyclopropyl)methyl]-1H-pyrrol-3-yl}carbonyl)pyrimidin-4-yl]amino}cyclopentyl]methyl sulfamate or [(1R,2R,3R,4R)-3-fluoro-2-hydroxy-4-{[5-({1-[(1S,2S)-(2-phenylcyclopropyl)methyl]-1H-pyrrol-3-yl}carbonyl)pyrimidin-4-yl]amino}cyclopentyl]methyl sulfamate] | 10 to 100 | – | 91
C#Cc1cccc([C@@H](C)n2ccc(C(=O)c3cncnc3N[C@@H]3C[C@H](COS(N)(=O)=O)[C@@H](O)C3)n2)c1 (single isomer, unassigned) [Compound I-10] | 10 to 100 | 61 | –
CC(c1cccc(Br)n1)n1ccc(C(=O)c2cncnc2N[C@@H]2C[C@H](COS(N)(=O)=O)[C@@H](O)C2)n1 (single isomer, unassigned) [Compound I-65, [(1R,2S,4R)-4-{[5-({1-[(1S)-1-(6-bromopyridin-2-yl)ethyl]-1H-pyrazol-3-yl}carbonyl)pyrimidin-4-yl]amino}-2-hydroxycyclopentyl]methyl sulfamate or [(1R,2S,4R)-4-{[5-({1-[(1R)-1-(6-bromopyridin-2-yl)ethyl]-1H-pyrazol-3-yl}carbonyl)pyrimidin-4-yl]amino}-2-hydroxycyclopentyl]methyl sulfamate] | < 10 | – | 99
